According to patent publication US20250275953A1, “VODOBATINIB FOR REDUCING PROGRESSION OF PARKINSON'S DISEASE” (Sun Pharma Advanced Research Company Ltd., priority 2022, published 2025):
Values joined by “and” are separate entries in the source; they are usually repeats but may differ in a detail not shown here. Equal values may be shown once. Read-outs that look alike come from different tables or passages of the source.

Assay: Plasma pharmacokinetics, Parkinson's disease patients, once daily for 14 days
Format: in vivo, human
Conditions: PD patients; for AUC(0-t) / AUC / half-life / Cmax / Tmax: human; for AUC(0-t): read-out: AUC0-24 Mean
Excerpt: Of these, 44 subjects completed the study. An additional 10 subjects were enrolled in the open label part of the study, of these, one subject was discontinued due to an AE of vomiting.
Safety population was comprised of 48 subjects (not including those in the open label cohorts) and PK population was comprised of 36 subjects from double blind part and 10 subjects from open label part of the study. No subjects were discontinued from the study due to protocol deviation.
The PK analysis was performed on the PK population and safety analysis was performed on this population as per the protocol described before.
Study NCT02970019 was a multi-center safety and tolerability study of vodobatinib in 60 subjects with Parkinson's Disease (diagnosed with PD according to the Brain Bank criteria of the United Kingdom Parkinson's Disease Society) who were randomized to receive placebo or various daily doses of vodobatinib for 14 days in a parallel assignment design with quadruple masking (participant, care provider, investigator, and outcomes assessor.) In study NCT02970019, consecutive cohorts of up to eight subjects received once-daily doses of 6, 12, 18, 24, 48, 96, 192, or 384 mg of study drug for 14 days, with six subjects in each cohort on vodobatinib and two subjects in each cohort on placebo. An alternating panel design was used such that subjects in the 6 and 18 mg cohorts were the same, and subjects in the 12 and 24 mg cohorts were the same, thus yielding 48 total individuals enrolled in the eight cohorts. There was a wash-out period of 14 days between each were studied in sequential ascending dose cohorts. In parallel to the double-blind cohorts, up to four subjects per dose cohort were enrolled in an open-label study of vodobatinib to receive 24, 48 or 96 mg once-daily doses of for 14 days. These subjects underwent lumbar puncture to collect CSF on Day 1, and 2-3 h after the last morning dose on Day 14. PK blood draws (for both double-blind and open label) were collected at pre-dose (˜30 min) and at 0.5, 1, 2, 4, 8, 12 and 24 h post-dose on Days 1 and 14.
Vodobatinib levels in plasma and CSF were determined using a fully validated LC-MS/MS assay with lower limits of quantitation (LLOQ) of 2.5 ng/mL and 0.05 ng/mL, respectively. PK analyses were performed using standard non-compartmental analysis with Phoenix® WinNonlin® software Version 6.4 to estimate the PK parameters Cmax, Tmax, AUCtau and Css. Descriptive statistics were used to characterize vodobatinib concentrations and PK parameters in plasma and CSF. Statistical calculations were performed with SAS software (Version 9.4, SAS Institute, Cary, North Carolina, USA).

Cc1ccc(C(=O)NNC(=O)c2c(C)cccc2Cl)cc1C#Cc1cnc2ccccc2c1 [N′-(2-chloro-6-methylbenzoyl)-4-methyl-3-[2-(3-quinolyl)ethynyl]-benzohydrazide]
Max Conc Geo. Mean (6 mg): 138.72 ng/mL | Max Conc Mean (6 mg): 182 ng/mL and 181.67 ng/mL | Max Conc Median (6 mg): 133.50 ng/mL | Max Conc Geo. Mean (12 mg): 270.17 ng/mL | Max Conc Mean (12 mg): 301.00 ng/mL | Max Conc Median (12 mg): 242.50 ng/mL | Max Conc Geo. Mean (18 mg): 300.12 ng/mL | Max Conc Mean (18 mg): 308.50 ng/mL | Max Conc Median (18 mg): 310.00 ng/mL | Max Conc Geo. Mean (24 mg): 677.41 ng/mL | Max Conc Mean (24 mg): 715.25 ng/mL | Max Conc Median (24 mg): 657.00 ng/mL | Max Conc Geo. Mean (48 mg): 930.30 ng/mL | Max Conc Mean (48 mg): 1110.44 ng/mL | Max Conc Median (48 mg): 844.00 ng/mL | Max Conc Geo. Mean (96 mg): 2298.86 ng/mL | Max Conc Mean (96 mg): 2802.50 ng/mL | Max Conc Median (96 mg): 2350.00 ng/mL | Max Conc Geo. Mean (192 mg): 2561.39 ng/mL | Max Conc Mean (192 mg): 3233.80 ng/mL | Max Conc Median (192 mg): 2580.00 ng/mL | Max Conc Geo. Mean (384 mg): 4198.52 ng/mL | Max Conc Mean (384 mg): 4512 ng/mL and 4512.00 ng/mL | Max Conc Median (384 mg): 5320.00 ng/mL | AUC(0-t) (6 mg, Day 14, plasma): 1250 ng·h/mL | AUC (6 mg, read-out: AUC Over Dosing Interval Geo. Mean): 1090 ng·h/mL | AUC (6 mg, read-out: AUC Over Dosing Interval Mean): 1250 ng·h/mL | AUC (6 mg, read-out: AUC Over Dosing Interval Median): 1040 ng·h/mL | AUC (6 mg, read-out: AUC Over Dosing Interval Min, Max): 470 to 2360 ng·h/mL | half-life (6 mg, read-out: Half-Life Lambda Z Geo. Mean (converted)): 11.1 h | half-life (6 mg, read-out: Half-Life Lambda Z Mean (converted)): 11.1 h | half-life (6 mg, read-out: Half-Life Lambda Z Median (converted)): 11.1 h | half-life (6 mg, read-out: Half-Life Lambda Z Min, Max (converted)): 11.1 h | AUC (12 mg, read-out: AUC Over Dosing Interval Geo. Mean): 2710 ng·h/mL | AUC (12 mg, read-out: AUC Over Dosing Interval Mean): 3250 ng·h/mL | AUC (12 mg, read-out: AUC Over Dosing Interval Median): 2530 ng·h/mL | AUC (12 mg, read-out: AUC Over Dosing Interval Min, Max): 1440 to 8240 ng·h/mL | AUC (18 mg, read-out: AUC Over Dosing Interval Geo. Mean): 2860 ng·h/mL | AUC (18 mg, read-out: AUC Over Dosing Interval Mean): 3370 ng·h/mL | AUC (18 mg, read-out: AUC Over Dosing Interval Median): 4160 ng·h/mL | AUC (18 mg, read-out: AUC Over Dosing Interval Min, Max): 908 to 4260 ng·h/mL | half-life (18 mg, read-out: Half-Life Lambda Z Mean (converted)): 13.5 h | half-life (18 mg, read-out: Half-Life Lambda Z Median (converted)): 13.5 h | half-life (18 mg, read-out: Half-Life Lambda Z Min, Max (converted)): 13.5 h | AUC (24 mg, read-out: AUC Over Dosing Interval Geo. Mean): 5250 ng·h/mL | AUC (24 mg, read-out: AUC Over Dosing Interval Mean): 5720 ng·h/mL | AUC (24 mg, read-out: AUC Over Dosing Interval Median): 6640 ng·h/mL | AUC (24 mg, read-out: AUC Over Dosing Interval Min, Max): 2460 to 8080 ng·h/mL | half-life (24 mg, read-out: Half-Life Lambda Z Geo. Mean (converted)): 10.5 h | half-life (24 mg, read-out: Half-Life Lambda Z Mean (converted)): 10.6 h | half-life (24 mg, read-out: Half-Life Lambda Z Median (converted)): 10.6 h | half-life (24 mg, read-out: Half-Life Lambda Z Min, Max (converted)): 8.9 to 12.4 h | AUC (48 mg, read-out: AUC Over Dosing Interval Geo. Mean): 7010 ng·h/mL | AUC (48 mg, read-out: AUC Over Dosing Interval Mean): 7910 ng·h/mL | AUC (48 mg, read-out: AUC Over Dosing Interval Median): 8670 ng·h/mL | AUC (48 mg, read-out: AUC Over Dosing Interval Min, Max): 2910 to 14200 ng·h/mL | half-life (48 mg, read-out: Half-Life Lambda Z Geo. Mean (converted)): 16.6 h | half-life (48 mg, read-out: Half-Life Lambda Z Mean (converted)): 19.6 h | half-life (48 mg, read-out: Half-Life Lambda Z Median (converted)): 11.3 h | half-life (48 mg, read-out: Half-Life Lambda Z Min, Max (converted)): 11.2 to 36.3 h | AUC (96 mg, read-out: AUC Over Dosing Interval Geo. Mean): 15100 ng·h/mL | AUC (96 mg, read-out: AUC Over Dosing Interval Mean): 17100 ng·h/mL | AUC (96 mg, read-out: AUC Over Dosing Interval Median): 13900 ng·h/mL | AUC (96 mg, read-out: AUC Over Dosing Interval Min, Max): 6870 to 38700 ng·h/mL | half-life (96 mg, read-out: Half-Life Lambda Z Geo. Mean (converted)): 13.2 h | half-life (96 mg, read-out: Half-Life Lambda Z Mean (converted)): 15.7 h | half-life (96 mg, read-out: Half-Life Lambda Z Median (converted)): 15.5 h | half-life (96 mg, read-out: Half-Life Lambda Z Min, Max (converted)): 5.7 to 26.1 h | AUC (192 mg, read-out: AUC Over Dosing Interval Geo. Mean): 27600 ng·h/mL | AUC (192 mg, read-out: AUC Over Dosing Interval Mean): 33800 ng·h/mL | AUC (192 mg, read-out: AUC Over Dosing Interval Median): 24800 ng·h/mL | AUC (192 mg, read-out: AUC Over Dosing Interval Min, Max): 13800 to 82700 ng·h/mL | AUC(0-t) (384 mg, Day 14, plasma): 43800 ng·h/mL | AUC (384 mg, read-out: AUC Over Dosing Interval Geo. Mean): 40400 ng·h/mL | AUC (384 mg, read-out: AUC Over Dosing Interval Mean): 43800 ng·h/mL | AUC (384 mg, read-out: AUC Over Dosing Interval Median): 44500 ng·h/mL | AUC (384 mg, read-out: AUC Over Dosing Interval Min, Max): 18600 to 66700 ng·h/mL | Cmax (oral, 6 mg, Day 1, plasma): 164 ng/mL | AUC(0-t) (oral, 6 mg, Day 1, plasma): 794 ng·h/mL | Tmax (oral, 6 mg, Day 1, plasma, read-out: Tmax median): 2 h | Cmax (oral, 6 mg, Day 14, plasma): 182 ng/mL | Tmax (oral, 6 mg, Day 14, plasma, read-out: Tmax median (range)): 2 h | Cmax (oral, 12 mg, Day 1, plasma): 255 ng/mL | AUC(0-t) (oral, 12 mg, Day 1, plasma): 2040 ng·h/mL | Tmax (oral, 12 mg, Day 1, plasma, read-out: Tmax median): 2 h | Cmax (oral, 12 mg, Day 14, plasma): 301 ng/mL | AUC(0-t) (oral, 12 mg, Day 14, plasma): 3250 ng·h/mL | Tmax (oral, 12 mg, Day 14, plasma, read-out: Tmax median (range)): 2 h | Cmax (oral, 18 mg, Day 1, plasma): 410 ng/mL | AUC(0-t) (oral, 18 mg, Day 1, plasma): 2730 ng·h/mL | Tmax (oral, 18 mg, Day 1, plasma, read-out: Tmax median): 2 h | Cmax (oral, 18 mg, Day 14, plasma): 309 ng/mL | AUC(0-t) (oral, 18 mg, Day 14, plasma): 3370 ng·h/mL | Tmax (oral, 18 mg, Day 14, plasma, read-out: Tmax median (range)): 3 h | Cmax (oral, 24 mg, Day 1, plasma): 385 ng/mL | AUC(0-t) (oral, 24 mg, Day 1, plasma): 2690 ng·h/mL | Tmax (oral, 24 mg, Day 1, plasma, read-out: Tmax median): 4 h | Cmax (oral, 24 mg, Day 14, plasma): 715 ng/mL | AUC(0-t) (oral, 24 mg, Day 14, plasma): 5720 ng·h/mL | Tmax (oral, 24 mg, Day 14, plasma, read-out: Tmax median (range)): 2 h | Cmax (oral, 48 mg, Day 1, plasma): 964 ng/mL | AUC(0-t) (oral, 48 mg, Day 1, plasma): 5310 ng·h/mL | Tmax (oral, 48 mg, Day 1, plasma, read-out: Tmax median): 4 h | Cmax (oral, 48 mg, Day 14, plasma): 1110 ng/mL | AUC(0-t) (oral, 48 mg, Day 14, plasma): 7910 ng·h/mL | Tmax (oral, 48 mg, Day 14, plasma, read-out: Tmax median (range)): 2 h | Cmax (oral, 96 mg, Day 1, plasma): 1360 ng/mL | AUC(0-t) (oral, 96 mg, Day 1, plasma): 10200 ng·h/mL | Tmax (oral, 96 mg, Day 1, plasma, read-out: Tmax median): 4 h | Cmax (oral, 96 mg, Day 14, plasma): 2800 ng/mL | AUC(0-t) (oral, 96 mg, Day 14, plasma): 17100 ng·h/mL | Tmax (oral, 96 mg, Day 14, plasma, read-out: Tmax median (range)): 2 h | Cmax (oral, 192 mg, Day 1, plasma): 1530 ng/mL | AUC(0-t) (oral, 192 mg, Day 1, plasma): 18600 ng·h/mL | Tmax (oral, 192 mg, Day 1, plasma, read-out: Tmax median): 2 h | Cmax (oral, 192 mg, Day 14, plasma): 3230 ng/mL | AUC(0-t) (oral, 192 mg, Day 14, plasma): 33800 ng·h/mL | Tmax (oral, 192 mg, Day 14, plasma, read-out: Tmax median (range)): 1 h | Cmax (oral, 384 mg, Day 1, plasma): 3020 ng/mL | AUC(0-t) (oral, 384 mg, Day 1, plasma): 29900 ng·h/mL | Tmax (oral, 384 mg, Day 1, plasma, read-out: Tmax median): 4.1 h | Cmax (oral, 384 mg, Day 14, plasma): 4510 ng/mL | AUC(0-t) (oral, 384 mg, Day 14, plasma): 43500 ng·h/mL | Tmax (oral, 384 mg, Day 14, plasma, read-out: Tmax median (range)): 1 h
